Experimental data from US6194465A, “Benzamide therapeutics for the treatment of inflammatory bowel disease” (priority 1999, dated 2001).

Tested on: adjuvant induced arthritis
Experiment: Rat adjuvant induced arthritis model of chronic inflammation
Assay type: in vivo
Conditions: Compound A 100 mg/kg po or dexamethasone 0.1 mg/kg, daily 7 days, vs adjuvant
Experimental: Confirmation of the anti-inflammatory activity of Compound A was sought in another related biological test-the rat adjuvant induced arthritis model of chronic inflammation. This model was selected because almost all of the anti-IBD agents also show efficacy in standard arthritis models. In this model Compound A was tested at 100 mg/kg, po in a 1 % methyl cellulose suspension. On day 0 all animals received an injection of either Mycobacterium butyricum (100μL, 20 mg/mL in mineral oil) or mineral oil in the base of the tail. 14 days after this injection, rat paws were measured and all the rats were randomized into 3 treatment groups of 8. A control adjuvant group (group without further treatment), a group to be treated with dexamethasone (steroid reference) and a group to treated with Compound A. Rats received Compound A 100 mg/kg, po, or dexamethasone 0.1 mg/kg, op, daily until day 21 (7 days dosing). On day 21 rats were sacrificed. Paw measurements were taken after 5 and 7 days treatment.

CC(=O)Nc1ccc(C(=O)NC(C)(C)C)cc1 [Compound A, N-tert-butyl-4-acetamidobenzamide]
inhibition of the inflammatory response: significant inhibition of the inflammatory response (p<0.005)
